Source: patent US7745493B2, “Methods of treating tardive dyskinesia and other movement disorders” (priority 1998, dated 2010)

How the values were obtained:
[1] = system: person one with long-standing TD; assay: Case Report 2: clinical observation of TD; type: in vivo, human; conditions: Case 2; acamprosate 666 mg three times daily added to memantine; magnesium oxide 250 mg three times a day added to acamprosate
Excerpt: person one had long-standing TD following decades of treatment with the neuroleptic drug perphenazine. Their involuntary movements comprised bilateral chorea of the upper extremities, plus writhing of the tongue and tongue-biting. Both of the latter movements led to a very sore tongue. In addition, the patient experienced impairment of their short-term memory, which was attributed primarily to cerebrovascular disease.
They also continued to have a sore tongue. […] In addition to memantine, the patient regularly took antiepileptic drugs (gabapentin and lamotrigine), antiplatelet agents (aspirin and ticlopidine), as well as medications for hypertension, glaucoma and gastrointestinal symptoms (isosorbide mononitrate, metoprolol, timolol eye drops and olsalazine).
The patient was placed on a treatment regime that included administration of 666 mg of acamprosate, three times daily. In this case, acamprosate was added to the patient's regimen, which continued to include memantine. […] Despite past evidence from formal testing that the patient had impaired short-term memory, they performed normally on a two-sentence memory task, which involved testing the patient's recall ability using two sentences containing 13 separate details. On the two-sentence memory task, within three attempts the patient was able to recall 9 details and, using a multiple choice format, was able to recall a total of 11 details. Recall of 9 details on the third attempt would be normal for a middle-aged adult, let alone one […].
After a full year on memantine and acamprosate, the memantine was discontinued, with little change in the patient's symptoms.
Magnesium oxide, 250 mg three times a day, was added, each dose being taken together with the acamprosate. […] The effect was definite: movements worsened when magnesium oxide was stopped and improved when it was restarted. After a month on magnesium, the dosage of acamprosate was increased to 666 mg four times a day, with 250 mg of magnesium oxide given together with each dose. […] The only residual sign of TD was a mild degree of involuntary movement of the hands.

[2] = system: patients with Meige syndrome; conditions: cited from earlier work
[3] = system: person two with long-standing TD; assay: Case Report 1: clinical observation of TD with blepharospasm; type: in vivo, human; conditions: Case 1; for effect on involuntary movements of TD: clinical observation, acamprosate 333 mg four times a day
Method: Palliative treatment with alprazolam (an anxiolytic and GABA agonist via modulation; dosage 0.25 mg four times a day) and trihexyphenidyl (an anticholinergic antiparkinson drug that inhibits dopamine re-uptake at synapses; dosage 2 mg twice a day) was prescribed by another physician.
Initially, their other medications were maintained unchanged.
Nimodipine was discontinued, and the patient was begun on memantine at a dosage of 10 mg twice a day.
For the following 10 days they added 250 mg three times a day of chelated magnesium.

[4] = system: person two with Parkinson's disease and peak-dose dyskinesia; assay: Case Report 3: peak-dose dyskinesia of treated Parkinson's disease; type: in vivo, human; conditions: Case 3; for effect on peak-dose dyskinesia: added to antiparkinson regime, memantine 10 mg three times a day, acamprosate 666 mg three times, then 333 mg four times a day, baclofen 30 and 60 mg daily, magnesium 300 mg three times a day
Method: The patient's Parkinson's disease was treated using levodopa/carbidopa and bromocriptine.
Prior to beginning treatment with acamprosate, the patient was on an antiparkinson treatment regime that consisted of 1 mg of pergolide three times a day, 5 mg of selegiline twice a day, and a combination of levodopa/carbidopa consisting of 550-600 mg of levodopa and 125-150 mg of carbidopa administered in divided doses.
The patient began acamprosate as an addition to the antiparkinson regime described above. Initially, the patient received 666 mg of acamprosate administered three times a day. Two weeks later the regime was adjusted such that the patient received 333 mg of acamprosate four times a day, taking one 333 mg pill with each daytime dose of 100 mg levodopa and 25 mg carbidopa. The patient's bedtime does of controlled-release levodopa-carbidopa (200 mg of levodopa and 50 mg of carbidopa) was continued, but were given without acamprosate. […] To confirm that the patient's improvement was due to the administration of acamprosate, the patient was taken off the acamprosate. […] During the period off acamprosate, an attempt was made to replace acamprosate with baclofen (a GABA-receptor agonist) at a total daily dose of 30 mg, and then with baclofen at a total daily dose of 60 mg.
Several months later, magnesium (300 mg elemental magnesium, as a mixed chelate), was added to the regimen. It was taken three times a day, together with a one of the patient's regular doses of levodopa/carbidopa. […] To establish whether the improvement was due to magnesium, the magnesium was stopped after several weeks.

[5] = system: patients with tic-related symptoms; conditions: in vivo; cited from earlier work

Compound	effect on involuntary movements of TD ([3]; memantine 10 mg twice a day)	effect on peak-dose dyskinesia [4]	also measured
[O]=[Mg] [Magnesium oxide]	–	–	effect on involuntary movements of TD [1]: improved further
COc1cc2c(cc1OC)C1CC(=O)C(CC(C)C)CN1CC2 (stereo not shown) [Tetrabenazine]	–	–	patients with involuntary movements alleviated [2]: 4 of 6; undesirable side effects [2]: drowsiness, drooling and Parkinsonism
OC(CCN1CCCCC1)(c1ccccc1)C1CCCCC1 (stereo not shown) [Trihexyphenidyl, trihexyphenidyl]	discontinued without a change in their involuntary movements	–	–
Cc1nnc2n1-c1ccc(Cl)cc1C(c1ccccc1)=NC2 [alprazolam]	no detectable effect	–	–
NCC(CC(=O)O)c1ccc(Cl)cc1 (stereo not shown) [baclofen]	–	no beneficial effect	adverse effects ([4]; total daily dose 30 mg, then 60 mg): sedation and nausea
CC(C[N+](C)(C)C)OC(N)=O (stereo not shown) [bethanecol]	–	did not appear to affect	–
O=C1CC2(CCCC2)CC(=O)N1CCCCN1CCN(c2ncccn2)CC1 [buspirone]	either produced little benefit or were not tolerated	–	–
NC(=O)N1c2ccccc2C=Cc2ccccc21 [carbamazepine]	–	did not appear to affect	–
Clc1cccc(Cl)c1N=C1NCCN1 [clonidine]	–	–	patients showing clinically significant improvement of tic-related symptoms [5]: < 50%; side effects that limit use [5]: hypotension or sedation
COCCOC(=O)C1=C(C)NC(C)=C(C(=O)OC(C)C)C1c1cccc([N+](=O)[O-])c1 (stereo not shown) [nimodipine]	–	–	reduction of involuntary movements ([3]; 30 mg four times a day): about 50%; time able to read text or music at a time ([3]; 30 mg four times a day): no more than 30 minutes; adverse effects ([3]; nimodipine 30 mg four times a day, memantine 10 mg twice a day): dizziness, lightheadedness, and palpitations
CN[C@H]1CC[C@@H](c2ccc(Cl)c(Cl)c2)c2ccccc21 [sertraline]	either produced little benefit or were not tolerated	did not appear to affect	–
medroxyprogesterone	–	did not appear to affect	–
vitamin E	either produced little benefit or were not tolerated	–	–
